“And” between values parts separate entries of the source, which are not always exact repeats. Equal values may be shown once.
How the values were obtained:
[1] = molecular target: T1, T. brucei ADKIN (Trypanosoma brucei brucei, UniProt Q584S6); experiment: ADKIN assay (phosphorylation by purified recombinant enzyme, HPLC); type: biochemical; set-up: Conc.9-MP: unit not given here; conditions: for Conc.9-MP: TbAK assay; for Act (U/mg): TbAK
T1 sequence (Q584S6 1-345): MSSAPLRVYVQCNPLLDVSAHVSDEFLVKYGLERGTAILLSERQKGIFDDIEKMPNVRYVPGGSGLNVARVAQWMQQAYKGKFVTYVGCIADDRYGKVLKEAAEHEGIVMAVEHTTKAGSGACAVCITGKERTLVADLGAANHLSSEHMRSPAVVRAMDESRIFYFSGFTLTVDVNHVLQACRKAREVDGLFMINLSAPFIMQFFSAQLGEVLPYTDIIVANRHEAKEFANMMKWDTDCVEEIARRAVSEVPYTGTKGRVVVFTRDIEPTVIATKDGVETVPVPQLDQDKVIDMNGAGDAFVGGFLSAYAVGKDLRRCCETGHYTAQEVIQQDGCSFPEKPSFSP
Experimental: The T. brucei ADKIN enzyme was diluted in a buffer containing 0.05% (v/v) Tween-20, 50 mM KCl, 0.1 mM dithiothreitol, and 50 mM Tris-HCl, pH 7.5 (dilution buffer), prior to use in the assay. The final assay mixture contained 12.5 ng T. brucei ADKIN, a range between 50 and 1000 µM of nucleoside 9 (or 1000 µM deoxyadenosine in the control reaction), 100 mM KCl, 10 mM MgCl2, 0.5 mM ATP, 5 mM potassium phosphate and 50 mM Tris-HCl, pH 7.5. The assay was incubated at 37 °C for 30 min, and subsequently heated for 2 min at 100 °C to inactivate the enzyme, diluted with 2 volumes of water, centrifuged through a Nanosep 3k Omega filter and mixed 1:1:2 with water and mobile phase. The HPLC analysis was performed on a 2.1 × 150 mm ACE Excel C18 column using a mobile phase composition 4A:76B:20C (see nucleotide pool analysis, Supplementary Information for details). Using these conditions, consecutive samples could be loaded (Supplementary Fig. 12). After 4–5 samples, the column was washed with high percent A (80A:20C) to remove bound ADP and ATP before re-equilibrating the column to original conditions.

[2] = system: bloodstream form T. brucei 427WT; experiment: Wash-out experiments with T. brucei; type: cell-based, Trypanosoma brucei
Experimental: Wash-out experiments with T. brucei
A culture of bloodstream form T. brucei 427WT, at mid-log phase of growth, was harvested and resuspended at a density of 10^5 cells mL-1, in fresh medium containing either no test compound, or […]
The cultures were incubated under standard conditions (37 °C/5% CO2) and cell counts were performed manually using a haemocytometer under phase contrast microscopy, every 24 h. The culture in continuous presence of analogue 9 was split in two at 8 h and 48 h (as indicated with arrows in Supplementary Figure S2). The split cultures were centrifuged and resuspended in the same volume of either fresh medium without test compound or fresh medium with the same concentration of compound 9 as before, reincubated. The detection limit for the manual cell count was 10^4 cells mL-1. […]

What does the source list for `Nc1ncnc2c1ccn2[C@@H]1O[C@H](CO)C[C@H]1O` [Compound 9, 3’-deoxytubercidin]?
Conc.9-MP ([1]; substrate 50 µM, 3 series): 11.2244 and 8.987 and 9.705; Conc.9-MP ([1]; substrate 100 µM): 19.1548 and 15.376 and 17.4986; Conc.9-MP ([1]; substrate 250 µM): 33.0019 and 26.0907 and 28.4308; Conc.9-MP ([1]; substrate 500 µM): 42.1131 and 37.0292 and 37.487; Conc.9-MP ([1]; substrate 1000 µM): 45.1958 and 43.7663 and 38.425; Act (U/mg) ([1]; substrate 50 µM, U = µmol/min): 1.497 U/mg and 1.198 U/mg and 1.294 U/mg; Act (U/mg) ([1]; substrate 100 µM): 2.554 U/mg and 2.05 U/mg and 2.333 U/mg; Act (U/mg) ([1]; substrate 250 µM): 4.4 U/mg and 3.479 U/mg and 3.791 U/mg; Act (U/mg) ([1]; substrate 500 µM): 5.615 U/mg and 4.937 U/mg and 4.998 U/mg; Act (U/mg) ([1]; substrate 1000 µM): 6.0261 U/mg and 5.836 U/mg and 5.123 U/mg; Vmax mg^−1 with TbADKIN ([1]; mean and SE, n = 3): 0.116 ± 0.0048 U (µmol s^−1); Vmax/mg with TbADKIN (original value) ([1]; value before revision): 6.93 ± 0.29 U (µmol . min-1); parasites recovered after wash-out ([2]; 0.500 µM, 48 h of exposure and subsequent removal, up to 120 h): no parasites were recovered; Manual cell count ([2]; Exp. 1, 0.165 µM, 8 h wash, 8 h): 60000 cells mL-1; Manual cell count ([2]; Exp. 1, 0.165 µM, 8 h wash, 24 h): 10000 cells mL-1; Manual cell count ([2]; Exp. 1, 0.165 µM, 8 h wash, 48 h): 40000 cells mL-1; Manual cell count ([2]; Exp. 1, 0.165 µM, 8 h wash, 72 h): 600000 cells mL-1; Manual cell count ([2]; Exp. 1, 0.165 µM, 8 h wash, 96 h): 3800000 cells mL-1; Manual cell count ([2]; Exp. 1, 0.165 µM, 8 h wash, 120 h): 1300000 cells mL-1; Manual cell count ([2]; Exp. 1, 0.165 µM, 48 h wash, 72 h): 20000 cells mL-1; Manual cell count ([2]; Exp. 1, 0.165 µM, 48 h wash, 96 h): 40000 cells mL-1; Manual cell count ([2]; Exp. 1, 0.165 µM, 48 h wash, 120 h): 280000 cells mL-1; Manual cell count ([2]; Exp. 1, 0.165 µM, Continuous, 8 h): 120000 cells mL-1; Manual cell count ([2]; Exp. 1, 0.165 µM, Continuous, 96 h): 10000 cells mL-1; Manual cell count ([2]; Exp. 1, 0.165 µM, Continuous, 120 h): 30000 cells mL-1; Manual cell count ([2]; Exp. 2, 0.500 µM, 8 h wash, 8 h): 55000 cells mL-1; Manual cell count ([2]; Exp. 2, 0.500 µM, 8 h wash, 24 h): 10000 cells mL-1; Manual cell count ([2]; Exp. 2, 0.500 µM, 8 h wash, 48 h): 10000 cells mL-1; Manual cell count ([2]; Exp. 2, 0.500 µM, 8 h wash, 72 h): 10000 cells mL-1; Manual cell count ([2]; Exp. 2, 0.500 µM, 8 h wash, 96 h): 30000 cells mL-1; Manual cell count ([2]; Exp. 2, 0.500 µM, 8 h wash, 120 h): 430000 cells mL-1; Manual cell count ([2]; Exp. 2, 0.500 µM, Continuous, 8 h): 110000 cells mL-1
